Measurements reported in ChEMBL document CHEMBL4433202, “Design and development of multitarget-directed N-Benzylpiperidine analogs as potential candidates for the treatment of Alzheimer's disease” (Eur J Med Chem, 2019).
Calls of active or inactive are those of the source. The calls are words filed in the database; no cut-off is given here.

Key:
Acetylcholinesterase [1] = biological target: T1, Acetylcholinesterase (Homo sapiens, UniProt P22303); test: Inhibition of human erythrocyte acetylcholinesterase using acetylthiocholine iodide as substrate pre-incubated for 10 mins followed by substrate addition and measured for 6 mins by Ellman's method
Cholinesterase = Cholinesterase (Homo sapiens, UniProt P06276); test: Inhibition of human serum butyrylcholinesterase using BTCI as substrate pre-incubated for 10 mins followed by substrate addition and measured for 6 mins by Ellman's method
Beta-secretase 1 = Beta-secretase 1 (Homo sapiens, UniProt P56817); test: Inhibition of human BACE1 using as 7-Methoxycoumarin-4-acetyl-[Asn670, Leu671]-Amyloid beta/A4 precursor protein 770 fragment 667-676-(2,4-dinitrophenyl) Lys-Arg-Arg amide trifluoroacetate salt as substrate incubated for 2 hrs by FRET based florescence assay
[2] = Permeability of the compound at 25 ug/ml after 18 hrs by PAMPA-BBB assay
Rattus norvegicus [3] = test: Antioxidant activity Wistar rat model of scopolamine-induced amnesia assessed as reduction in MDA levels in brain homogenates at 10 mg/kg, po by TBARS assay; assay type: functional, organism-based
Acetylcholinesterase [4] = biological target: T1, Acetylcholinesterase; test: Non-competitive inhibition of human erythrocyte AChE using acetylthiocholine iodide as substrate preincubated for 10 mins followed by substrate addition and measured for 6 mins by Lineweaver-Burk plot analysis
Acetylcholinesterase [5] = biological target: T1, Acetylcholinesterase; test: Non-competitive inhibition of human erythrocyte AChE using acetylthiocholine iodide as substrate preincubated for 10 mins followed by substrate addition and measured for 6 mins by Dixon plot analysis
[6] = biological target: Amyloid-beta precursor protein (Homo sapiens) (UniProt P05067); test: Inhibition of amyloid beta 1 to 42 (unknown origin) aggregation assessed as oligomer height at 10 uM incubated for 7 days by AFM analysis
[7] = biological target: Amyloid-beta precursor protein (Homo sapiens) (UniProt P05067); test: Inhibition of amyloid beta 1 to 42 (unknown origin) aggregation assessed as roughness index at 10 uM incubated for 7 days by AFM analysis
[8] = Cytotoxicity against human SH-SY5Y cells assessed as cell viability at 10 to 80 uM after 48 hrs by MTT assay relative to control; assay type: cell-based; details: read-out: Activity
[9] = Acute toxicity in Wistar rat assessed as induction of abnormal reactions at 100 to 500 mg/kg, po measured up to 14 days; assay type: organism-based; details: in vivo, 336 h
Rattus norvegicus [10] = test: Cognitive enhancing effect in Wistar rat model of amyloid beta (1 to 42) oligomer-induced memory impairment model assessed as escape latency time at 5 mg/kg, po for 9 days by Morris water maze test (reference value: 49.3 to 74 secs); assay type: functional
Rattus norvegicus [11] = test: Reversal of scopolamine-induced spatial memory impairment in Wistar rat model of amnesia assessed as decrease in transfer latency at 2.5 to 10 mg/kg, po administered once daily for 1 week followed by scopolamine challenge 30 mins prior to test by elevated plus maze test; assay type: functional, organism-based
Rattus norvegicus [12] = test: Reversal of scopolamine-induced spatial memory impairment in Wistar rat model of amnesia assessed as decrease in time spent on open arms at 2.5 to 10 mg/kg, po administered once daily for 1 week followed by scopolamine challenge 30 mins prior to test by elevated plus maze test; assay type: functional, organism-based
Rattus norvegicus [13] = test: Reversal of scopolamine-induced spatial memory impairment in Wistar rat model of amnesia assessed as increase in spontaneous alteration at 10 mg/kg, po administered once daily for 1 week followed by scopolamine challenge 30 mins prior to test by Y-maze test relative to control; assay type: functional, organism-based
Rattus norvegicus [14] = test: In-vivo inhibition of scopolamine-induced acetylcholinesterase activity in Wistar rat brain homogenates using acetylthiocholine iodide as substrate at 10 mg/kg, po and measured for 6 mins by Ellman's method; assay type: functional, organism-based
Rattus norvegicus [15] = test: Antioxidant activity Wistar rat model of scopolamine-induced amnesia assessed as increase in SOD levels in brain homogenates at 10 mg/kg, po by NBT dye based assay; assay type: functional, organism-based
Rattus norvegicus [16] = test: Cognitive enhancing effect in Wistar rat model of amyloid beta (1 to 42) oligomer-induced memory impairment model assessed as escape latency time at 10 mg/kg, po for 9 days by Morris water maze test (reference value: 49.3 to 74 secs); assay type: functional, organism-based
Rattus norvegicus [17] = test: Cognitive enhancing effect in Wistar rat model of amyloid beta (1 to 42) oligomer-induced memory impairment model assessed as increase in number of platform crossings at 10 mg/kg, po for 9 days by Morris water maze test; assay type: functional, organism-based
[18] = Cmax in Wistar rat at 10 mg/kg, po measured up to 0 to 72 hrs; assay type: ADME, organism-based; design: dose 10 mg/kg, route oral; details: in vivo
[19] = Tmax in Wistar rat at 10 mg/kg, po measured up to 0 to 72 hrs; assay type: ADME, organism-based; details: in vivo
[20] = AUC (0 to 24 hrs) in Wistar rat at 10 mg/kg, po; assay type: ADME, organism-based; design: dose 10 mg/kg, time < 24 hr, route oral; details: in vivo
[21] = MRT in Wistar rat at 10 mg/kg, po measured up to 0 to 72 hrs; assay type: ADME, organism-based; details: in vivo
[22] = Elimination half life in Wistar rat at 10 mg/kg, po measured up to 0 to 72 hrs; assay type: ADME, organism-based; details: in vivo, read-out: beta t1/2 (converted)
Rattus norvegicus [23] = test: Effect on total arm entries in scopolamine-induced spatial memory impairment in Wistar rat model of amnesia at 10 mg/kg, po administered once daily for 1 week followed by scopolamine challenge 30 mins prior to test by Y-maze test relative to control; assay type: functional, organism-based
[24] = Acute toxicity in Wistar rat at 100 to 500 mg/kg, po measured up to 14 days; assay type: organism-based; details: in vivo, 336 h

T1 sequence (P22303 whole entry): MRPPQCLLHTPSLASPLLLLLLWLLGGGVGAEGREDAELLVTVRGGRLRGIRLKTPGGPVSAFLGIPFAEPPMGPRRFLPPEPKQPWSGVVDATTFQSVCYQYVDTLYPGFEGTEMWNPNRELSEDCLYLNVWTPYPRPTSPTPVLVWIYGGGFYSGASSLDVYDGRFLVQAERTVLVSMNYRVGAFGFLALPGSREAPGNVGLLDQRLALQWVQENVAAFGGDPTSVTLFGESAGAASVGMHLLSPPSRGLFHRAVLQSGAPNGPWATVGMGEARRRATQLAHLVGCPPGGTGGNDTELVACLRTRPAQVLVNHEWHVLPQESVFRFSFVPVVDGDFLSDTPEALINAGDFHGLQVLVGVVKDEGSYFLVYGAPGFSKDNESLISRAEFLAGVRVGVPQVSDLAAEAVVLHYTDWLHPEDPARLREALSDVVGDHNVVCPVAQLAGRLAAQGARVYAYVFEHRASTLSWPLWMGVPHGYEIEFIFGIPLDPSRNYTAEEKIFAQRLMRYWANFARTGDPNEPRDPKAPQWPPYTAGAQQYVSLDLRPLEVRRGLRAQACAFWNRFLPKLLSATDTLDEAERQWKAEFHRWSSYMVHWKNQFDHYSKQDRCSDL
Sequence of Beta-secretase 1 (P56817 whole entry, the tested form may be a part): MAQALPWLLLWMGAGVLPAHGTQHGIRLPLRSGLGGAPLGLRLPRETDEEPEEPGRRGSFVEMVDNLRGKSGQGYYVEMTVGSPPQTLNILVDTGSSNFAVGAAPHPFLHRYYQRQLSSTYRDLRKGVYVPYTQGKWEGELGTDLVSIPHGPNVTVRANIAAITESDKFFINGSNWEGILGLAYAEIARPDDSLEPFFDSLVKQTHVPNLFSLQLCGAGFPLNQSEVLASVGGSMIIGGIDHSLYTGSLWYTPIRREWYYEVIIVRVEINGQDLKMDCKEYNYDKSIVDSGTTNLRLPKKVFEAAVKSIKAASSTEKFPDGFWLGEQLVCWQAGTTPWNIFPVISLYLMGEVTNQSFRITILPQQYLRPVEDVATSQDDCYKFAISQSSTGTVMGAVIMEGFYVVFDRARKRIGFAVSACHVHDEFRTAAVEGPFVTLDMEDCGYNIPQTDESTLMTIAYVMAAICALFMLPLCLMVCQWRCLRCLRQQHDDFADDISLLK
Sequence of Cholinesterase (P06276 whole entry, the tested form may be a part): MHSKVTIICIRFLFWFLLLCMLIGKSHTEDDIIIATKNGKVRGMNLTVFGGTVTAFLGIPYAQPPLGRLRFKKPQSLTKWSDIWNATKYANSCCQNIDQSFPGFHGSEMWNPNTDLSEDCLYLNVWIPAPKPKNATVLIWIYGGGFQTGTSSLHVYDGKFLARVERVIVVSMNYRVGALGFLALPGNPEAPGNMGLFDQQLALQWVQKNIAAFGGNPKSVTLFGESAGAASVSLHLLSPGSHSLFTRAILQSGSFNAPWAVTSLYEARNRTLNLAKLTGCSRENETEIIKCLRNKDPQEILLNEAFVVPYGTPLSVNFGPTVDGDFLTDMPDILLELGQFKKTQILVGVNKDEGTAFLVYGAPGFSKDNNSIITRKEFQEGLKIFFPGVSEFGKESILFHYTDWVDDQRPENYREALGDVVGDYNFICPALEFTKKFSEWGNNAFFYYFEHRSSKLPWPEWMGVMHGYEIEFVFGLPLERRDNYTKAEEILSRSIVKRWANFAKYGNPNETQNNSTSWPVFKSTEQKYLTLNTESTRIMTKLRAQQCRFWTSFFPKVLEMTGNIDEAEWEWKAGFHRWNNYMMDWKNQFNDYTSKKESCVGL
Sequence of Amyloid-beta precursor protein (Homo sapiens) (P05067 whole entry): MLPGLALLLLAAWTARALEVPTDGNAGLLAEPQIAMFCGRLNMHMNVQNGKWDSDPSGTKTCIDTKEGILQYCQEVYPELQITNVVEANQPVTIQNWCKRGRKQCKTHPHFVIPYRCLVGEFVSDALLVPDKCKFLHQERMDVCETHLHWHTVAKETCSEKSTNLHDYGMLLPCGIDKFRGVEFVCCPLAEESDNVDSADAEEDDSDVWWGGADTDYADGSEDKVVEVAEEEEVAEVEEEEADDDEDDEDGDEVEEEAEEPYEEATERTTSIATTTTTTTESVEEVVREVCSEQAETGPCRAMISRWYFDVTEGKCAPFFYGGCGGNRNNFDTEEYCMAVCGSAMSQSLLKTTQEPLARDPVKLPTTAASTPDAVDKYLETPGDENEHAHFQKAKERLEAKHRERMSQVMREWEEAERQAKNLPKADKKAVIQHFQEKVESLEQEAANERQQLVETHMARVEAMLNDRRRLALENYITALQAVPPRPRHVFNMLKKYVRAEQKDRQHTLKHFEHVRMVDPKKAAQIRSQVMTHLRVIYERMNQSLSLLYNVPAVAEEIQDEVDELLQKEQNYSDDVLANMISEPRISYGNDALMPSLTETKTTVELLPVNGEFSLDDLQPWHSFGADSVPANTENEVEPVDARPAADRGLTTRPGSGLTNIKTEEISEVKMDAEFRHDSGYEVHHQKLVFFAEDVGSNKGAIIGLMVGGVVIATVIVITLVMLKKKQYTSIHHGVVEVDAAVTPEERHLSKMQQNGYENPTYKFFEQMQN

COc1cccc(CNC2CCN(Cc3ccccc3)CC2)c1OC
IC50 (Acetylcholinesterase [1]): 2.2 µM
IC50 (Cholinesterase): 7.2 µM
IC50 (Beta-secretase 1): 5.3 µM

Cc1ccc(CNC2CCN(Cc3ccccc3)CC2)cc1
IC50 (Acetylcholinesterase [1]): 3.7 µM
IC50 (Cholinesterase): > 30 µM
IC50 (Beta-secretase 1): 17 µM

FC(F)(F)c1ccc(/C=N/C2CCN(Cc3ccccc3)CC2)cc1
IC50 (Acetylcholinesterase [1]): 0.44 µM
IC50 (Cholinesterase): 3.9 µM
IC50 (Beta-secretase 1): 0.28 µM
Papp at 18 h, 25 ug/ml [2]: 6.24 ×10⁻⁶ cm/s

Clc1ccc(CNC2CCN(Cc3ccccc3)CC2)cc1
IC50 (Acetylcholinesterase [1]): 0.85 µM
IC50 (Cholinesterase): 4 µM
IC50 (Beta-secretase 1): 0.66 µM

COc1cc(CNC2CCN(Cc3ccccc3)CC2)cc(OC)c1OC
IC50 (Acetylcholinesterase [1]): 2.2 µM
IC50 (Cholinesterase): 11 µM
IC50 (Beta-secretase 1): 13 µM

Cc1ccc(/C=N/C2CCN(Cc3ccccc3)CC2)cc1
IC50 (Acetylcholinesterase [1]): 4.4 µM
IC50 (Cholinesterase): > 30 µM
IC50 (Beta-secretase 1): 19 µM

FC(F)(F)c1ccc(CNC2CCN(Cc3ccccc3)CC2)cc1
Activity (Rattus norvegicus [3]): Active
IC50 (Acetylcholinesterase [1]): 0.11 µM
IC50 (Cholinesterase): 3 µM
inhibition (Acetylcholinesterase [4]): Active
Ki (Acetylcholinesterase [5]): 0.1 µM
IC50 (Beta-secretase 1): 0.22 µM
Papp at 18 h, 25 ug/ml [2]: 6.09 ×10⁻⁶ cm/s
Activity [6]: 44.5 to 104 nm
Activity [7]: 1.7 to 4.4 nm
viability at 48 h, up to 80 µM [8]: 84.6 to 99.2%
Activity [9]: Non-Toxic
Time (Rattus norvegicus [10]): 20.3 to 74.5 s
Activity (Rattus norvegicus [11]): Active
Activity (Rattus norvegicus [12]): Active
Activity (Rattus norvegicus [13]): Active
inhibition (Rattus norvegicus [14]): Active
Activity (Rattus norvegicus [15]): Active
Activity (Rattus norvegicus [16]): Active
Activity (Rattus norvegicus [17]): Active
Cmax [18]: 32.8 ng/mL
Tmax [19]: 5.3 h
AUC(0-t) at 24 h [20]: 633 ng·h/mL
MRT [21]: 45.7 h
half-life [22]: 29.2 h
Activity (Rattus norvegicus [23]): inactive
Activity [24]: Non-Toxic

Fc1ccc(CNC2CCN(Cc3ccccc3)CC2)c(F)c1
IC50 (Acetylcholinesterase [1]): 0.71 µM
IC50 (Cholinesterase): 3.1 µM
IC50 (Beta-secretase 1): 2.9 µM

Oc1ccc(/C=N/C2CCN(Cc3ccccc3)CC2)c(O)c1
IC50 (Acetylcholinesterase [1]): 2.6 µM
IC50 (Cholinesterase): 19 µM
IC50 (Beta-secretase 1): 10 µM

Fc1ccc(CNC2CCN(Cc3ccccc3)CC2)cc1
IC50 (Acetylcholinesterase [1]): 1.2 µM
IC50 (Cholinesterase): 3.9 µM
IC50 (Beta-secretase 1): 0.55 µM

c1ccc(CNC2CCN(Cc3ccccc3)CC2)cc1
IC50 (Acetylcholinesterase [1]): 1.7 µM
IC50 (Cholinesterase): 12 µM
IC50 (Beta-secretase 1): 2.9 µM

Oc1ccccc1/C=N/C1CCN(Cc2ccccc2)CC1
IC50 (Acetylcholinesterase [1]): 2.8 µM
IC50 (Cholinesterase): 16 µM
IC50 (Beta-secretase 1): 2.7 µM

O=[N+]([O-])c1ccc(/C=N/C2CCN(Cc3ccccc3)CC2)cc1
IC50 (Acetylcholinesterase [1]): 0.9 µM
IC50 (Cholinesterase): 7.3 µM
IC50 (Beta-secretase 1): 0.73 µM
Papp at 18 h, 25 ug/ml [2]: 4.99 ×10⁻⁶ cm/s

FC(F)(F)Oc1ccc(CNC2CCN(Cc3ccccc3)CC2)cc1
IC50 (Acetylcholinesterase [1]): 0.59 µM
IC50 (Cholinesterase): 3.5 µM
IC50 (Beta-secretase 1): 1.4 µM

Cc1cccc(CNC2CCN(Cc3ccccc3)CC2)c1
IC50 (Acetylcholinesterase [1]): 4.1 µM
IC50 (Cholinesterase): > 30 µM
IC50 (Beta-secretase 1): 2.6 µM

C(=N\C1CCN(Cc2ccccc2)CC1)/c1ccccc1
IC50 (Acetylcholinesterase [1]): 2.1 µM
IC50 (Cholinesterase): > 30 µM
IC50 (Beta-secretase 1): 3.4 µM

Oc1ccc(CNC2CCN(Cc3ccccc3)CC2)c(O)c1
IC50 (Acetylcholinesterase [1]): 2.3 µM
IC50 (Cholinesterase): 18 µM
IC50 (Beta-secretase 1): 5.9 µM

COc1cc(/C=N/C2CCN(Cc3ccccc3)CC2)cc(OC)c1OC
IC50 (Acetylcholinesterase [1]): > 15 µM
IC50 (Cholinesterase): 11 µM
IC50 (Beta-secretase 1): 14 µM

Oc1ccc(/C=N/C2CCN(Cc3ccccc3)CC2)cc1
IC50 (Acetylcholinesterase [1]): 4.8 µM
IC50 (Cholinesterase): > 30 µM
IC50 (Beta-secretase 1): 12 µM

Oc1ccc(CNC2CCN(Cc3ccccc3)CC2)cc1
IC50 (Acetylcholinesterase [1]): 4 µM
IC50 (Cholinesterase): > 30 µM
IC50 (Beta-secretase 1): 9.9 µM

COc1cccc(/C=N/C2CCN(Cc3ccccc3)CC2)c1OC
IC50 (Acetylcholinesterase [1]): > 15 µM
IC50 (Cholinesterase): > 30 µM
IC50 (Beta-secretase 1): 6.3 µM

Oc1ccccc1CNC1CCN(Cc2ccccc2)CC1
IC50 (Acetylcholinesterase [1]): 2.4 µM
IC50 (Cholinesterase): 14 µM
IC50 (Beta-secretase 1): 2 µM

FC(F)(F)Oc1ccc(/C=N/C2CCN(Cc3ccccc3)CC2)cc1
IC50 (Acetylcholinesterase [1]): 1 µM
IC50 (Cholinesterase): 5.5 µM
IC50 (Beta-secretase 1): 1.8 µM

Fc1ccc(/C=N/C2CCN(Cc3ccccc3)CC2)cc1
IC50 (Acetylcholinesterase [1]): 2.9 µM
IC50 (Cholinesterase): > 30 µM
IC50 (Beta-secretase 1): 1.5 µM

Clc1ccc(/C=N/C2CCN(Cc3ccccc3)CC2)c(Cl)c1
IC50 (Acetylcholinesterase [1]): 1.3 µM
IC50 (Cholinesterase): 5.8 µM
IC50 (Beta-secretase 1): 3.9 µM

COc1cc2c(cc1OC)C(=O)C(CC1CCN(Cc3ccccc3)CC1)C2 (stereo unspecified) [DONEPEZIL]
Time (Rattus norvegicus [10]): 22.5 to 72.5 s

Clc1ccc(CNC2CCN(Cc3ccccc3)CC2)c(Cl)c1
IC50 (Acetylcholinesterase [1]): 0.62 µM
IC50 (Cholinesterase): 3.5 µM
IC50 (Beta-secretase 1): 3 µM

Fc1ccc(/C=N/C2CCN(Cc3ccccc3)CC2)c(F)c1
IC50 (Acetylcholinesterase [1]): 1.3 µM
IC50 (Cholinesterase): > 30 µM
IC50 (Beta-secretase 1): 3.5 µM

O=[N+]([O-])c1ccc(CNC2CCN(Cc3ccccc3)CC2)cc1
Activity (Rattus norvegicus [3]): Active
IC50 (Acetylcholinesterase [1]): 0.72 µM
IC50 (Cholinesterase): 7.8 µM
IC50 (Beta-secretase 1): 0.43 µM
Papp at 18 h, 25 ug/ml [2]: 4.41 ×10⁻⁶ cm/s
viability at 48 h, up to 80 µM [8]: 76.3 to 96.3%
Activity [9]: Non-Toxic
Activity (Rattus norvegicus [11]): Active
Activity (Rattus norvegicus [12]): Active
inhibition (Rattus norvegicus [14]): Active
Activity (Rattus norvegicus [15]): Active
Activity (Rattus norvegicus [23]): inactive
Activity [24]: Non-Toxic

Clc1ccc(/C=N/C2CCN(Cc3ccccc3)CC2)cc1
IC50 (Acetylcholinesterase [1]): 1.5 µM
IC50 (Cholinesterase): 4.6 µM
IC50 (Beta-secretase 1): 1.7 µM

Cc1cccc(/C=N/C2CCN(Cc3ccccc3)CC2)c1
IC50 (Acetylcholinesterase [1]): > 15 µM
IC50 (Cholinesterase): > 30 µM
IC50 (Beta-secretase 1): 3.3 µM
